According to patent US10093653B2, “Vitamin D receptor-coregulator inhibitors” (UWM Research Foundation, Inc., priority 2011, dated 2018):
≈ marks a conversion by molar mass, not a printed value.

Tests used:
TRPV6 in DU145 cells = assay: TRPV6 expression, semi-quantitative RT-PCR; assay type: cell-based; conditions: 20 nM
CYP24A1 = CYP24A1 expression levels; assay type: cell-based; conditions: compound in presence and absence of 1,25-(OH)2D3
HEK293T cells = assay: Toxicity by Cell-Titer Glo after the FRET assay; assay type: cell-based; conditions: for Toxicity (%): Conc. 62.5 μM
[1] = PAMPA
[2] = 12 h, pH 7.4
VDR in SKOV-3 cells = assay: VDR expression, western blotting of whole cell lysate; assay type: cell-based; conditions: SKOV-3, 24 hours; 31b 25 and 50 uM, 32b 50 uM
Procedure: Expression of VDR was analyzed by western blotting of whole cell lysate using monoclonal antibody against VDR (Neomarker, Calif. cat no-RT-200PO).

SKOV-3 = assay: Cytotoxicity, MTS assay; assay type: cell-based; conditions: SKOV-3, within 48 hours
OVCAR-8 = assay: Cytotoxicity, MTS assay; assay type: cell-based; conditions: OVCAR-8, within 48 hours
ECC-1 = assay: Cytotoxicity, MTS assay; assay type: cell-based; conditions: ECC-1 endometrial cancer cell-line, within 48 hours
SKOV-3 cells = assay: Western blots for phospho-p38 MAPkinase and phospho SAPK/JNK; assay type: cell-based; conditions: SKOV-3, 25 uM, within 24 hours
Source text: Vitamin-d/VDR signaling protects the cancer cells from reactive oxygen species (ROS) induced cellular damages.
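For Permeability Log(Pe) in this document: passive permeability measured by parallel artificial membrane permeability assay, each experiment run in triplicate.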
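For Permeability values (log Pe) of standards in this document: passive permeability measured by parallel artificial membrane permeability assay, each experiment run in triplicate.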

Row | Permeability Log(Pe) [1] [cm/s] | Solubility [2] [µM] | SMILES | also measured
1 |  |  | C=C1/C(=C\C=C2/CCC[C@]3(C)[C@@H]([C@H](C)CCCC(C)(C)O)CC[C@@H]23)C[C@@H](O)C[C@@H]1O [1,25-(OH)2D3, 1,25-dihydroxyvitamin D3, reference compound] | TRPV6 expression with VDR ligand (TRPV6 in DU145 cells): up-regulated
2 |  |  | c1ccc(NC(c2ccccc2)c2c[nH]c3ccccc23)cc1 (stereo not drawn) [Compound 1, N-((1H-indol-3-yl)(phenyl)methyl)aniline] | Modulation of CYP24A1 expression (CYP24A1): no modulation of CYP24A1
3 | −6.01 |  | Cc1[nH]c2ccccc2c1C(Nc1ccccn1)c1ccc(Br)cc1 (stereo not drawn) [Compound 15] | 
4 | −6.12 |  | Cc1[nH]c2ccccc2c1C(Nc1ccccn1)c1ccc(C(C)C)cc1 (stereo not drawn) [Compound 17] | Toxicity LD50 (given instead of percentages) (HEK293T cells; footnote b, highly active compounds): 18.0^b μM
5 | −5.99 |  | Cc1[nH]c2ccccc2c1C(Nc1ccccn1)c1cccc(F)c1 (stereo not drawn) [Compound 19] | 
6 | −6.00 | 252.9 (≈ 79 µg/mL) | Cc1[nH]c2ccccc2c1C(Nc1ccccc1)c1ccccc1 (stereo not drawn) [Compound 30a, N-((2-methyl-1H-indol-3-yl)(phenyl)methyl)aniline] | 
7 | −6.03 | 93.9 (≈ 32.6 µg/mL) | Cc1[nH]c2ccccc2c1C(Nc1ccccc1)c1ccc(Cl)cc1 (stereo not drawn) [Compound 30b, N-((4-chlorophenyl)(2-methyl-1H-indol-3-yl)methyl)aniline] | 
8 | −6.10 | 237.5 (≈ 81.3 µg/mL) | COc1ccc(C(Nc2ccccc2)c2c(C)[nH]c3ccccc23)cc1 (stereo not drawn) [Compound 30c, N-((4-methoxyphenyl)(2-methyl-1H-indol-3-yl)methyl)aniline] | 
9 | −6.34 | 175.1 (≈ 57.2 µg/mL) | Cc1ccc(C(Nc2ccccc2)c2c(C)[nH]c3ccccc23)cc1 (stereo not drawn) [Compound 30d, N-((2-methyl-1H-indol-3-yl)(p-tolyl)methyl)aniline] | 
10 | −6.88 | 157.7 (≈ 56.1 µg/mL) | Cc1[nH]c2ccccc2c1C(Nc1ccccc1)c1ccc(N(C)C)cc1 (stereo not drawn) [Compound 30e, N,N-dimethyl-4-((2-methyl-1H-indol-3-yl)(phenylamino)methyl)aniline] | 
11 | −6.08 | 117.6 (≈ 42 µg/mL) | Cc1[nH]c2ccccc2c1C(Nc1ccccc1)c1ccc([N+](=O)[O-])cc1 (stereo not drawn) [Compound 30f, N-((2-methyl-1H-indol-3-yl)(4-nitrophenyl)methyl)aniline] | 
12 | −6.40 | 189.0 (≈ 47.3 µg/mL) | Cc1[nH]c2ccccc2c1C(C)Nc1ccccc1 (stereo not drawn) [Compound 30g, N-(1-(2-methyl-1H-indol-3-yl)ethyl)aniline] | 
13 | −6.30 | 67.3 (≈ 24.4 µg/mL) | Cc1[nH]c2ccccc2c1C(Nc1ccccc1)c1ccc2ccccc2c1 (stereo not drawn) [Compound 30h, N-((2-methyl-1H-indol-3-yl)(naphthalen-2-yl)methyl)aniline] | 
14 | −6.41 | 31.6 (≈ 11 µg/mL) | Cc1[nH]c2ccccc2c1C(Nc1ccccc1)c1ccccc1Cl (stereo not drawn) [Compound 31a, N-((2-chlorophenyl)(2-methyl-1H-indol-3-yl)methyl)aniline] | 
15 | −6.30 | 84.2 (≈ 31.7 µg/mL) | COc1ccc(NC(c2ccccc2Cl)c2c(C)[nH]c3ccccc23)cc1 (stereo not drawn) [Compound 31c, N-((2-chlorophenyl)(2-methyl-1H-indol-3-yl)methyl)-4-methoxyaniline] | 
16 | −6.45 | 35.9 (≈ 13 µg/mL) | Cc1ccc(NC(c2ccccc2Cl)c2c(C)[nH]c3ccccc23)cc1 (stereo not drawn) [Compound 31d, N-((2-chlorophenyl)(2-methyl-1H-indol-3-yl)methyl)-4-methylaniline] | 
17 | −7.28 | 21.0 (≈ 8.19 µg/mL) | Cc1[nH]c2ccccc2c1C(Nc1ccc(N(C)C)cc1)c1ccccc1Cl (stereo not drawn) [Compound 31e, N^1-((2-chlorophenyl)(2-methyl-1H-indol-3-yl)methyl)-N^4,N^4-dimethylbenzene-1,4-diamine] | 
18 | −7.60 | 4.9 (≈ 1.92 µg/mL) | Cc1[nH]c2ccccc2c1C(Nc1ccc([N+](=O)[O-])cc1)c1ccccc1Cl (stereo not drawn) [Compound 31f, N-((2-chlorophenyl)(2-methyl-1H-indol-3-yl)methyl)-4-nitroaniline] | 
19 | −6.22 | 59.7 (≈ 22.5 µg/mL) | COc1ccccc1NC(c1ccccc1Cl)c1c(C)[nH]c2ccccc12 (stereo not drawn) [Compound 31h, N-((2-chlorophenyl)(2-methyl-1H-indol-3-yl)methyl)-2-methoxyaniline] | 
20 | −6.58 | 15.3 (≈ 5.31 µg/mL) | Cn1cc(C(Nc2ccccc2)c2ccccc2Cl)c2ccccc21 (stereo not drawn) [Compound 32a, N-((2-chlorophenyl)(1-methyl-1H-indol-3-yl)methyl)aniline] | 
21 | −6.51 | 52.3 (≈ 17.4 µg/mL) | Clc1ccccc1C(Nc1ccccc1)c1c[nH]c2ccccc12 (stereo not drawn) [Compound 32b, N-((2-chlorophenyl)(1H-indol-3-yl)methyl)aniline] | Expression of VDR (VDR in SKOV-3 cells): downregulation of VDR; Cytotoxicity, cell viability (SKOV-3): did not show any cytotoxicity; Cytotoxicity, cell viability (OVCAR-8): did not show any cytotoxicity; Cytotoxicity, cell viability (ECC-1): did not show any cytotoxicity; Activation of SAPK/JNK (SKOV-3 cells): did not cause the similar activation; Activation of p38 MAPkinase (SKOV-3 cells): did not cause the similar activation
22 | −6.89 | 11.8 (≈ 4.29 µg/mL) | Cc1[nH]c2ccccc2c1C(Sc1ccccc1)c1ccccc1Cl (stereo not drawn) [Compound 32c, 3-((2-chlorophenyl)(phenylthio)methyl)-2-methyl-1H-indole] | 
23 |  |  | CNC(=C[N+](=O)[O-])NCCSCc1ccc(CN(C)C)o1 [Ranitidine, reference compound] | Permeability values (log Pe) of standards [1]: −8.02±0.074 cm/s
24 |  |  | NC(=O)N1c2ccccc2C=Cc2ccccc21 [carbamazepine, reference compound] | Permeability values (log Pe) of standards [1]: −6.81±0.0011 cm/s

Row | SMILES | Permeability Log(Pe) [1] [cm/s] | Solubility [2] [µM] | also measured
25 | COc1ccc(C(Nc2ccccn2)c2c(C)[nH]c3ccccc23)cc1 (stereo not drawn) [Compound 11] | −6.25 |  | Toxicity (%) (HEK293T cells): 100%
26 | Cc1ccc(C(Nc2ccccn2)c2c(C)[nH]c3ccccc23)cc1 (stereo not drawn) [Compound 12] | −6.10 |  | Toxicity (%) (HEK293T cells): 90%
27 | COc1cccc(C(Nc2ccccn2)c2c(C)[nH]c3ccccc23)c1 (stereo not drawn) [Compound 13] | −6.12 |  | Toxicity (%) (HEK293T cells): 60%
28 | Cc1[nH]c2ccccc2c1C(Nc1ccccn1)c1cccc(Br)c1 (stereo not drawn) [Compound 14] | −6.11 |  | Toxicity (%) (HEK293T cells): 100%
29 | Cc1[nH]c2ccccc2c1C(Nc1ccccn1)c1ccc(F)cc1 (stereo not drawn) [Compound 16] | −6.05 |  | Toxicity (%) (HEK293T cells): 100%
30 | Cc1[nH]c2ccccc2c1C(Nc1ccccn1)c1cccc(Cl)c1 (stereo not drawn) [Compound 18] | −6.01 |  | Toxicity (%) (HEK293T cells): 100%
